Broadly, the IC50 is the concentration needed to halve the response being measured. Usually AUC stands for the area under the concentration-time curve, a measure of exposure. High values mean more exposure, low ones less exposure.

This is an account of results in ChEMBL document CHEMBL4028801, “A multifactorial approach to hepatobiliary transporter assessment enables improved therapeutic compound development” (Toxicol Sci, 2013).

One data set addresses Bile salt export pump (Homo sapiens, UniProt O95342). Kind of data set: Inhibition of human BSEP overexpressed in Sf9 cell membrane vesicles assessed as uptake of [3H]-taurocholate in presence of ATP measured after 15 to 20 mins by membrane vesicle transport assay. The format is ADME, cell-based.
Data set [1] concerns the target ATP-binding cassette sub-family C member 3 (Homo sapiens, UniProt O15438). Kind of data set: Inhibition of human MRP3 overexpressed in Sf9 insect cell membrane vesicles assessed as uptake of [3H]-estradiol-17beta-D-glucuronide in presence of ATP and GSH measured after 10 mins by membrane vesicle transport assay. The format is ADME, cell-based.
A short description of data set [2]: Drug concentration at steady state in human at 1 to 40 mg, po QD after 24 hrs. The class given is ADME, organism-based. The conditions noted are these: in vivo, read-out: Css.
Data set [3] addresses T1, ATP-binding cassette sub-family C member 4 (Homo sapiens, UniProt O15439).
T1 sequence (O15439 whole entry): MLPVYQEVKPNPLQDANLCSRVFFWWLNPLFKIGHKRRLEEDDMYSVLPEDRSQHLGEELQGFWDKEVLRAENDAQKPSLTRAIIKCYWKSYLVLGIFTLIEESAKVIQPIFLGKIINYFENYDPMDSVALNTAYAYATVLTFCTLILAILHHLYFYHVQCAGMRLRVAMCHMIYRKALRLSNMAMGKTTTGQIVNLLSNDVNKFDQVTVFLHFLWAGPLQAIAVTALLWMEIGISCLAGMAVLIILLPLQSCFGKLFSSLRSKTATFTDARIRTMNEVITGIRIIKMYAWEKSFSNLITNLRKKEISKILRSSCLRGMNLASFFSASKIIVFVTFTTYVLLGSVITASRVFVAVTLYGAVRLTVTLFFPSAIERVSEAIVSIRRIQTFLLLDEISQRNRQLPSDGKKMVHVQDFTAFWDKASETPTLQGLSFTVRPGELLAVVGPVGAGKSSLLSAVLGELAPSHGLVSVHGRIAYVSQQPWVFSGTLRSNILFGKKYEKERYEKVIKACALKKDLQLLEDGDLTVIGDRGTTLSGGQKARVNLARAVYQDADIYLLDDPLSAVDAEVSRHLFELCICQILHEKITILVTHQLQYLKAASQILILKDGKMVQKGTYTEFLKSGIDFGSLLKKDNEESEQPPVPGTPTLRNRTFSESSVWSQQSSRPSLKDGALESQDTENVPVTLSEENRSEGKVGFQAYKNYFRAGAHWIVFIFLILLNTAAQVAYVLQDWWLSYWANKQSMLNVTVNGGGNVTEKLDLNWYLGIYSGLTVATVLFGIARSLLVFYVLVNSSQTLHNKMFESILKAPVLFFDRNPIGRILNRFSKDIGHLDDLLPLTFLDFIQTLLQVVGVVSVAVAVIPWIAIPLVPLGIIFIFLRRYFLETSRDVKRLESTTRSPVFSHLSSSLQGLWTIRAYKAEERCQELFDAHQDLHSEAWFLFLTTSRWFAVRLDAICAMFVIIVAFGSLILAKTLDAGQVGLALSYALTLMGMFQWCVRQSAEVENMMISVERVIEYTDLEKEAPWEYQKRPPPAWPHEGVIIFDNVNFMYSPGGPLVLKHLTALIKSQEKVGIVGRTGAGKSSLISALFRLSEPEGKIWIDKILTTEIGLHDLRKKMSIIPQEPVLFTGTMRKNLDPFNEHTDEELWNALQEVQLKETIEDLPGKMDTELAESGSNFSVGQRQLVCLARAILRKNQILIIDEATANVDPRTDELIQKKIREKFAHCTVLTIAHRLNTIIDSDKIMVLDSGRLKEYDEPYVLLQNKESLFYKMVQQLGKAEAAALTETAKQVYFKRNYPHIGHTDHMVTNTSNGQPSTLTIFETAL
Briefly: Inhibition of human MRP4 overexpressed in Sf9 cell membrane vesicles assessed as uptake of [3H]-estradiol-17beta-D-glucuronide in presence of ATP and GSH measured after 20 mins by membrane vesicle transport assay. The format is ADME, cell-based.

Data set [4] is described as follows: AUC in human at 1 to 40 mg, po QD after 24 hrs. As to conditions: in vivo. The format is ADME, organism-based.
The target of data set [5] is ATP-binding cassette sub-family C member 2 (Homo sapiens, UniProt Q92887). Kind of data set: Inhibition of human MRP2 overexpressed in Sf9 cell membrane vesicles assessed as uptake of [3H]-estradiol-17beta-D-glucuronide in presence of ATP and GSH measured after 20 mins by membrane vesicle transport assay.
Data set [6] can be described thus: Ratio of drug concentration at steady state in human at 0.2 mg, po QID after 6 hrs to IC50 for human MRP4 overexpressed in Sf9 insect cells. The class given is ADME, organism-based. As to conditions: in vivo.
The nature of data set [7]: Ratio of drug concentration at steady state in human at 0.2 mg, po QID after 6 hrs to IC50 for human BSEP overexpressed in Sf9 insect cells. The class given is ADME, organism-based. As to conditions: in vivo.
The nature of data set [8]: AUC in human at 0.2 mg, po QID after 6 hrs. The format is ADME, organism-based. Also noted: time < 6 hr, dose 0.2 mg, route oral. As to conditions: in vivo.
A short description of data set [9]: Ratio of drug concentration at steady state in human at 5 to 10 mg, po QD after 24 hrs to IC50 for human BSEP overexpressed in Sf9 insect cells. The format is ADME, organism-based. The conditions noted are these: in vivo.
Data set [10] in a line: AUC in human at 5 to 10 mg, po QD after 24 hrs. The class given is ADME, organism-based. The conditions noted are these: in vivo.
The nature of data set [11]: Drug concentration at steady state in human at 5 to 10 mg, po QD after 24 hrs. The conditions noted are these: in vivo, read-out: Css. The class given is ADME, organism-based.
Another data set relates to Homo sapiens. Briefly: Cardiotoxicity in human at 20 to 30 mg/day, po. The format is toxicity.
A short description of data set [12]: AUC in human at 10 mg, po after 24 hrs. The format is ADME, organism-based. Also noted: time < 24 hr, dose 10 mg, route oral. The conditions noted are these: in vivo.
Data set [13] can be described thus: Ratio of drug concentration at steady state in human at 50 mg, po QD after 24 hrs to IC50 for human BSEP overexpressed in Sf9 insect cells. The format is ADME, organism-based. As to conditions: in vivo.
Data set [14] is described as follows: Drug concentration at steady state in human at 50 mg, po QD after 24 hrs. As to conditions: in vivo, read-out: Css. The class given is ADME, organism-based.
The nature of data set [15]: AUC in human at 50 mg, po QD after 24 hrs. Also noted: dose 50 mg, time < 24 hr, route oral. The format is ADME, organism-based. The conditions noted are these: in vivo.
Data set [16] is described as follows: Ratio of drug concentration at steady state in human administered intraocularly as 1 drop QD of 0.03% solution after 24 hrs to IC50 for human BSEP overexpressed in Sf9 insect cells. As to conditions: topical_or_ocular. The format is ADME.
A short description of data set [17]: AUC in human at 9 mg, po QD after 24 hrs. The class given is ADME, organism-based. Also noted: time < 24 hr, dose 9 mg, route oral. The conditions noted are these: in vivo.
Data set [18] is described as follows: Ratio of drug concentration at steady state in human at 9 mg, po QD after 24 hrs to IC50 for human BSEP overexpressed in Sf9 insect cells. The conditions noted are these: in vivo. The class given is ADME, organism-based.
The nature of data set [19]: Ratio of drug concentration at steady state in human at 9 mg, po QD after 24 hrs to IC50 for human MRP4 overexpressed in Sf9 insect cells. The class given is ADME, organism-based. The conditions noted are these: in vivo.
Data set [20] in a line: Ratio of drug concentration at steady state in human at 9 mg, po QD after 24 hrs to IC50 for human MRP3 overexpressed in Sf9 insect cells. The class given is ADME, organism-based. The conditions noted are these: in vivo.
Data set [21] can be described thus: Drug concentration at steady state in human at 9 mg, po QD after 24 hrs. The conditions noted are these: in vivo, read-out: Css. The format is ADME, organism-based.

Sequence of ATP-binding cassette sub-family C member 2 (Q92887 whole entry): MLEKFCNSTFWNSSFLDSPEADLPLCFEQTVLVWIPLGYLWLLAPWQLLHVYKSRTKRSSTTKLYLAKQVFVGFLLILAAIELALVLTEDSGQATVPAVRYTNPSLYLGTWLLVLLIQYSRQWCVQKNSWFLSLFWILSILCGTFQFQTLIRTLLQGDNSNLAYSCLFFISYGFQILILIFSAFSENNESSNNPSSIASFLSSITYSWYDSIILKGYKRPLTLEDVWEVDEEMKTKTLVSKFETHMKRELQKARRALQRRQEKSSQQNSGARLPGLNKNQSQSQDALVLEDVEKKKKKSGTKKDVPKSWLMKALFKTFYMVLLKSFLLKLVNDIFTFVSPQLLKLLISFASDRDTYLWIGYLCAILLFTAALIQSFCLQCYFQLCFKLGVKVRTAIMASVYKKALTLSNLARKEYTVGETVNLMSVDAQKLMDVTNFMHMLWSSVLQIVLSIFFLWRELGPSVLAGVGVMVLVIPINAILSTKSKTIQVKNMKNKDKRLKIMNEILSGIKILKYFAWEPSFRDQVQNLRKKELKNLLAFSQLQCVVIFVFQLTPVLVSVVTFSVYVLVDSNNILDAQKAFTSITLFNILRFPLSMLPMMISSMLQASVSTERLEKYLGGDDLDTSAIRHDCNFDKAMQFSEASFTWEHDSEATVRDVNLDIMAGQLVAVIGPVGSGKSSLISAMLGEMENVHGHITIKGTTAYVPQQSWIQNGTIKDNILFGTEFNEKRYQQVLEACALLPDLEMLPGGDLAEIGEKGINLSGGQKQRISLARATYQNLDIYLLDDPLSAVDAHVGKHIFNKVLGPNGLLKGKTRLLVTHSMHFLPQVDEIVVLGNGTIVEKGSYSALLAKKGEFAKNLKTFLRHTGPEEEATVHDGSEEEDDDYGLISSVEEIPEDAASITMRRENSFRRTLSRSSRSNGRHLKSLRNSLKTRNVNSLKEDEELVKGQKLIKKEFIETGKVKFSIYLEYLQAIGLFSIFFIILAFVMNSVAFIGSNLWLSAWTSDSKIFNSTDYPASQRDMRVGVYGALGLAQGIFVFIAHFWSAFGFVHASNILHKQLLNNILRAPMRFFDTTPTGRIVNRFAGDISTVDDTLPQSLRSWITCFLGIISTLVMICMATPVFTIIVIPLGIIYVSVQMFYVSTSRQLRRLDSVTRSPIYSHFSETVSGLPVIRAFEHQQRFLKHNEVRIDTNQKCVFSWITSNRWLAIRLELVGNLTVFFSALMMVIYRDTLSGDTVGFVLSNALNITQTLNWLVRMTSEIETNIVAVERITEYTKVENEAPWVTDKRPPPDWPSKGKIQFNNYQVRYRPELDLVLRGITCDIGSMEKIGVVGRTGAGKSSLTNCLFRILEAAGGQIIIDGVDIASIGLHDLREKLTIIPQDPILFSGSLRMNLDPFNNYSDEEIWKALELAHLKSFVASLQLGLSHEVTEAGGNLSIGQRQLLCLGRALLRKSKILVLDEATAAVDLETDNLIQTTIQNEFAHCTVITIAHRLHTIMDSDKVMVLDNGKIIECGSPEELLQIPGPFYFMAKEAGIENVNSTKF
Sequence of ATP-binding cassette sub-family C member 3 (O15438 whole entry): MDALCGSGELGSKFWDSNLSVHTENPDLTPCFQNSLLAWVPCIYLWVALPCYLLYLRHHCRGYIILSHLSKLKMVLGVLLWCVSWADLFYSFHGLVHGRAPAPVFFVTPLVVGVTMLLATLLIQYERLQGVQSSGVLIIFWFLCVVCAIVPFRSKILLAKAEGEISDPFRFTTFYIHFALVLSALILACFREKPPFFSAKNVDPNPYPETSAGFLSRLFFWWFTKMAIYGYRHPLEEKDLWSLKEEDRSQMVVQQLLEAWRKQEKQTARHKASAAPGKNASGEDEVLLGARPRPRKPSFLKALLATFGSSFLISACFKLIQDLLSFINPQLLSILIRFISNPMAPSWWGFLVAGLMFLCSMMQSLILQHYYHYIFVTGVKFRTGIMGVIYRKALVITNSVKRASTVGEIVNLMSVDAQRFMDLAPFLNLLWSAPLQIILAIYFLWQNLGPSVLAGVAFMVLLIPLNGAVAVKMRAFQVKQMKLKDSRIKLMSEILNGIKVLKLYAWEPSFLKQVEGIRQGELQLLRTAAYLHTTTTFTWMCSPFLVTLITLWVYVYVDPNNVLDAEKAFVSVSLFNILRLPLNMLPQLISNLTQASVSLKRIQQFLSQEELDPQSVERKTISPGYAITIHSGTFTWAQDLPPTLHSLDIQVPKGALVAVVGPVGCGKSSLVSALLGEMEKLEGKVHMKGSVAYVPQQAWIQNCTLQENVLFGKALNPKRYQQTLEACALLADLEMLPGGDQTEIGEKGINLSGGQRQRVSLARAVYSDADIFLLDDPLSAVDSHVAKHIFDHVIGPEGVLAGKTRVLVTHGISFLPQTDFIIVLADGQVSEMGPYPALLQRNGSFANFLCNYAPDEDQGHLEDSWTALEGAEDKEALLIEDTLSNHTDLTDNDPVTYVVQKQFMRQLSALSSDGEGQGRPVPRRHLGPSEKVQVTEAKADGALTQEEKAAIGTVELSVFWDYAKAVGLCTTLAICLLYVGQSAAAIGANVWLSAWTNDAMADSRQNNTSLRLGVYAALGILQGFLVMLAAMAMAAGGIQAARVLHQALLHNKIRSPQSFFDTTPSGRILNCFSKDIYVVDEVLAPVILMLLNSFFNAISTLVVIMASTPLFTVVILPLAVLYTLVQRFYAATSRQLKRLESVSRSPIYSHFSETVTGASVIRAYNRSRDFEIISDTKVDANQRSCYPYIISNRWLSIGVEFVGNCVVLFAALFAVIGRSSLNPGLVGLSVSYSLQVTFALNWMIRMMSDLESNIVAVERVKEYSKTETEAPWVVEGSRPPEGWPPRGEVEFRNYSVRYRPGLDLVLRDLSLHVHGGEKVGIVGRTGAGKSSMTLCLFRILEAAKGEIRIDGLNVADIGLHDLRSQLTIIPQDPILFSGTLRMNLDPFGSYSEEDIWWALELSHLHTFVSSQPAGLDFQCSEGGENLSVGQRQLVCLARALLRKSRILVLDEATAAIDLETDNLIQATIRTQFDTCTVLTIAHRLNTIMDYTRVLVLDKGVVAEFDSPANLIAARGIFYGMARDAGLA
Sequence of Bile salt export pump (O95342 whole entry): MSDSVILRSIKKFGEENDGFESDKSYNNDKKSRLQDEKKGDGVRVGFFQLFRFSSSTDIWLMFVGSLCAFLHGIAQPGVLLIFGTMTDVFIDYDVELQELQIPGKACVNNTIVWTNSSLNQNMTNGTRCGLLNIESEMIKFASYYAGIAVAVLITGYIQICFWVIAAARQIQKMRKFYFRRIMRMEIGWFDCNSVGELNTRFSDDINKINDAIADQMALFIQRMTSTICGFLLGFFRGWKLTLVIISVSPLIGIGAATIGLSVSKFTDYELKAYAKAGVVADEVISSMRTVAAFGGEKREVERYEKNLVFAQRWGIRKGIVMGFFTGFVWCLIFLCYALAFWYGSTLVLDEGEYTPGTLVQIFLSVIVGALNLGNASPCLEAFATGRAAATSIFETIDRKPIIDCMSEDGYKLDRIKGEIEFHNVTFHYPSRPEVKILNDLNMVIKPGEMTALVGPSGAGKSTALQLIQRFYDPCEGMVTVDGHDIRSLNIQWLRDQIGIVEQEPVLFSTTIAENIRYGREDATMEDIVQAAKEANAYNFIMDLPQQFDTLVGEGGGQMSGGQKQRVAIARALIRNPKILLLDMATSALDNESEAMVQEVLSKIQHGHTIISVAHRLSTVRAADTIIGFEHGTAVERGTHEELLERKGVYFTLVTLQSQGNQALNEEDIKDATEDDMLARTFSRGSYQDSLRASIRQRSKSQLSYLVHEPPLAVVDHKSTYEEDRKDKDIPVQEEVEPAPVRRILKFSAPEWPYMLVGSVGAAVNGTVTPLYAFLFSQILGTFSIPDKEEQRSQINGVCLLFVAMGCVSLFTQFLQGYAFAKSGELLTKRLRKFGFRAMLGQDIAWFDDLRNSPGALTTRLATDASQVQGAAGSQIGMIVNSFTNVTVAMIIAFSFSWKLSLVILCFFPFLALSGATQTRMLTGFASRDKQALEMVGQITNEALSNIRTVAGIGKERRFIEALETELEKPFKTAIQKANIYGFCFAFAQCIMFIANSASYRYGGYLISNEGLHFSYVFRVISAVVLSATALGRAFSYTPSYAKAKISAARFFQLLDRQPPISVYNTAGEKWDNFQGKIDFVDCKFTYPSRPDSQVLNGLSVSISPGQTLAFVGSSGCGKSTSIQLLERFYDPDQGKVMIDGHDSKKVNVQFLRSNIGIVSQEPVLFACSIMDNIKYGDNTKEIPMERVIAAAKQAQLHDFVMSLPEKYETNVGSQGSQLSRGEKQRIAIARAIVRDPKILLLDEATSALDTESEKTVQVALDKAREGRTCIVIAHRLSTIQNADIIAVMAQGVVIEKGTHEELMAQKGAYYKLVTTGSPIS

Take `Cl.OCCN1CCN(CCCN2c3ccccc3Sc3ccc(C(F)(F)F)cc32)CC1`: the concentration for half-maximal inhibition (IC50) at Bile salt export pump is 87.3 µM; in data set [1], over 133 µM; in data set [3] it was over 133 µM; in [5] it was over 133 µM. In addition, the concentration at 24 h in data set [2] was 1 nM. The area under the curve (AUC) at 24 h in data set [4] was determined as 0.03 µM·h.
On to `CCCC[C@](C)(O)C/C=C/[C@H]1[C@H](O)CC(=O)[C@@H]1CCCCCCC(=O)OC`, for which the Ratio in data set [6] is 0; in [7] it was 0.00001. In addition, the half-maximal inhibitory concentration (IC50) on Bile salt export pump is 27.7 µM; in data set [1], over 133 µM; in data set [3], 46 µM; in [5], over 133 µM. Further, the AUC at 6 h in data set [8] turned out to be 0.001 µM·h.
As to `CC(C)(C)C(=O)OCOP(=O)(COCCn1cnc2c(N)ncnc21)OCOC(=O)C(C)(C)C` [ADEFOVIR DIPIVOXIL], the Ratio in data set [9] was 0.00069. In data set [10], this molecule came in with an AUC at 24 h of 0.765 µM·h. Besides, the 50% inhibitory concentration (IC50) is 46 µM on Bile salt export pump, over 133 µM in data set [1], over 133 µM in data set [3] and over 133 µM in data set [5]. Besides, in [11], the concentration at 24 h was found to be 32 nM.
For `COc1ccc(CCN2CCC(Nc3nc4ccccc4n3Cc3ccc(F)cc3)CC2)cc1` [ASTEMIZOLE], the IC50 in data set [1], in data set [3] and in [5] was over 133 µM each time. The Activity result in the data set with Homo sapiens was “Toxic”. This molecule had an exposure (AUC) at 24 h in data set [12] of 0.024 µM·h.
As for `CC(O)(CS(=O)(=O)c1ccc(F)cc1)C(=O)Nc1ccc(C#N)c(C(F)(F)F)c1` (stereo unspecified) [BICALUTAMIDE], in [13], the Ratio was 0.263. The half-maximal inhibitory concentration (IC50) on Bile salt export pump was 79.6 µM; in [1], over 133 µM; in [3], over 133 µM; in data set [5], over 133 µM. For the same molecule, the concentration at 24 h in data set [14] is 20900 nM. Further, the AUC at 24 h in data set [15] was 502 µM·h.
Consider `CCNC(=O)CCC/C=C\C[C@@H]1[C@@H](/C=C/[C@@H](O)CCc2ccccc2)[C@H](O)C[C@@H]1O` [BIMATOPROST], for which the Ratio in [16] was 2e-7. Also, the IC50 on Bile salt export pump is 40.4 µM; in data set [1] it was over 133 µM; in data set [3], over 133 µM; in data set [5], over 133 µM.
With `CCCC1O[C@@H]2C[C@H]3[C@@H]4CCC5=CC(=O)C=C[C@]5(C)[C@H]4[C@@H](O)C[C@]3(C)[C@]2(C(=O)CO)O1` (stereo partly specified) [BUDESONIDE], the exposure (AUC) at 24 h in data set [17] amounted to 0.0151 µM·h. Further, the Ratio in [18] turned out to be 0.00001; in [19], 0; in data set [20], 0. Also, the IC50 at Bile salt export pump is 46 µM; in [1] it was 54.5 µM; in data set [3], 37 µM; in data set [5], over 133 µM. Besides, in [21], the concentration at 24 h was 0.629 nM.
